25 molecules from US4073892A, “N^2 -alkoxynaphthylsulfonyl-L-argininamides and the pharmaceutically acceptable salts thereof” (Mitsubishi Chemical Industries Limited, priority 1974, dated 1978) can be followed below.

The target in data set [1] is T1, thrombin (Bos taurus, UniProt P00735).
T1 construct: purchased Mochida Pharmaceutical Co., Ltd
Briefly: fibrinogen coagulation time (antithrombotic activity). Type of data set: biochemical. The following applies: bovine fibrinogen, thrombin solution 5 units/ml, borate saline buffer pH 7.4, 25° C; normal coagulation time 50-55 seconds. On the procedure: Immediately after mixing, the reaction mixture was transferred from the ice bath to a bath maintained at 25° C. Coagulation times were taken as the period between the time of transference to the 25° C bath and the time of the first appearance of fibrin threads.
The term "concentration required to prolong the coagulation time by a factor of two" is the concentration of an active ingredient required to prolong the normal coagulation time 50-55 seconds to 100-110 seconds.

Data set [2] concerns mice (male, 20 g). Put plainly: acute toxicity (LD50), intraperitoneal administration in mice. Type of data set: in vivo. An excerpt: Representative LD50 values, for example, for N^2 -(6, 7-dimethoxy-2-naphthylsulfonyl)-L-arginyl-N-(2-methoxyethyl)glycine, N^2 -(6, 7-dimethoxy-2-naphthylsulfonyl)-L-arginyl-N-(2-ethoxyethyl)-β-alanine, N^2 -(4, 6-dimethoxy-2-naphthylsulfonyl)-L-arginyl-N-(2-methoxyethyl)glycine, N^2 -(7-methoxy-2-naphthylsulfonyl)-L-arginyl-N-(2-methoxyethyl)glycine are 1,900-2,400, 660-1,000, 660-1,000, 2,000 milligrams per kilogram, respectively.

Structures are written as SMILES.

As for `CCCC(C(=O)O)N(CC(=O)O)C(=O)[C@H](CCCNC(=N)N)NS(=O)(=O)c1ccc2cc(OC)c(OC)cc2c1` (stereo partly drawn) [Sample 54, N^2-(6,7-dimethoxy-2-naphthylsulfonyl)-L-arginyl-N-(1-carboxybutyl)glycine], in data set [1], the “Concentration Required to Prolong The Coagulation Time By A Factor of Two” value (from here on “Concentration Required”) was 55 µM.
For `COCCN(CC(=O)O)C(=O)[C@H](CCCNC(=N)N)NS(=O)(=O)c1ccc2ccc(OC)cc2c1` [Sample 35, N^2-(7-methoxy-2-naphthylsulfonyl)-L-arginyl-N-(2-methoxyethyl)glycine], the “acute toxicity value (LD50)” value in data set [2] is recorded as 2,000 milligrams per kilogram. The “Concentration Required” value in data set [1] amounted to 0.5 µM.
Turning to `COc1cc2ccc(S(=O)(=O)N[C@@H](CCCNC(=N)N)C(=O)N(CC(=O)O)CC(C)C)cc2cc1OC` [Sample 5, N^2-(6,7-dimethoxy-2-naphthylsulfonyl)-L-arginyl-N-isobutylglycine], the “Concentration Required” value in data set [1] worked out at 2 µM.
Still for that read-out and setting: for `CCOC(=O)CCN(CC(=O)O)C(=O)[C@H](CCCNC(=N)N)NS(=O)(=O)c1ccc2cc(OC)c(OC)cc2c1` [Sample 49, N^2-(6,7-dimethoxy-2-naphthylsulfonyl)-L-arginyl-N-(2-ethoxycarbonylethyl)glycine] the value was 6.5 µM.
Regarding `COCCN(CC(=O)O)C(=O)[C@H](CCCNC(=N)N)NS(=O)(=O)c1cc(OC)c2cc(OC)ccc2c1` [Sample 23, N^2-(4,6-dimethoxy-2-naphthylsulfonyl)-L-arginyl-N-(2-methoxyethyl)glycine], in data set [2], the “acute toxicity value (LD50)” value is reported as 660-1,000 milligrams per kilogram. For the same molecule, the “Concentration Required” value in data set [1] was 4 µM.
For the molecule `COc1cc2ccc(S(=O)(=O)N[C@@H](CCCNC(=N)N)C(=O)N(CC(=O)O)CC(C)OC)cc2cc1OC` (stereo partly drawn) [Sample 55, N^2-(6,7-dimethoxy-2-naphthylsulfonyl)-L-arginyl-N-(2-methoxypropyl)glycine], the “Concentration Required” value in data set [1] was 6.5 µM.
On the same count and under the same terms, in the case of `CCOC(=O)CN(CCOC)C(=O)[C@H](CCCNC(=N)N)NS(=O)(=O)c1ccc2cc(OC)c(OC)cc2c1` [Sample 14, N^2-(6,7-dimethoxy-2-naphthylsulfonyl)-L-arginyl-N-(2-methoxyethyl)glycine ethyl ester] it was 1.5 µM; in that of `COCCN(CC(=O)O)C(=O)[C@H](CCCNC(=N)N)NS(=O)(=O)c1cccc2c(OC)cccc12` [Sample 43, N^2-(5-methoxy-1-naphthylsulfonyl)-L-arginyl-N-(2-methoxyethyl) glycine], 2.5 µM; in that of `CCCCCCCCOC(=O)CN(CCOC)C(=O)[C@H](CCCNC(=N)N)NS(=O)(=O)c1ccc2cc(OC)c(OC)cc2c1` [Sample 50, N^2-(6,7-dimethoxy-2-naphthylsulfonyl)-L-arginyl-N-(2-methoxyethyl)glycine octyl ester], 2 µM.
On the same count and under the same terms, in the case of `COCCCN(CC(=O)O)S(=O)(=O)c1ccc2cc(OC)c(OC)cc2c1` [Sample 19, N^2-(6,7-dimethoxy-2-naphthylsulfonyl)-N-(3-methoxypropyl)glycine] it was 5 µM; in that of `CCCCN(CC(=O)O)C(=O)[C@H](CCCNC(=N)N)NS(=O)(=O)c1ccc2cc(OC)ccc2c1` [Sample 31, N^2-(6-methoxy-2-naphthylsulfonyl)-L-arginyl-N-butylglycine], 0.5 µM; in that of `CCCCN(CC(=O)O)C(=O)[C@H](CCCNC(=N)N)NS(=O)(=O)c1ccc2ccc(OC)cc2c1` [Sample 39, N^2-(7-methoxy-2-naphthylsulfonyl)-L-arginyl-N-butylglycine], 0.5 µM.
In the case of `CCOc1cc2ccc(S(=O)(=O)N[C@@H](CCCNC(=N)N)C(=O)N(CCOC)CC(=O)O)cc2cc1OCC` [Sample 27, N^2-(6,7-diethoxy-2-naphthylsulfonyl)-L-arginyl-N-(2-methoxyethyl) glycine], in data set [1], the “Concentration Required” value is 15 µM.
In the case of `COCCN(CC(=O)O)C(=O)[C@H](CCCNC(=N)N)NS(=O)(=O)c1ccc2cc(OC)c(OC)cc2c1` [Sample 13, N^2-(6,7-dimethoxy-2-naphthylsulfonyl)-L-arginyl-N-(2-methoxyethyl)glycine], in data set [2], the “acute toxicity value (LD50)” value is recorded as 1,900-2,400 milligrams per kilogram. Moreover, in data set [1], the “Concentration Required” value turned out to be 0.5 µM.
For the molecule `COCCN(CCC(=O)O)C(=O)[C@H](CCCNC(=N)N)NS(=O)(=O)c1ccc2cc(OC)c(OC)cc2c1` [Sample 15, N^2-(6,7-dimethoxy-2-naphthylsulfonyl)-L-arginyl-N-(2-methoxyehtyl)-β-alanine], the “Concentration Required” value in data set [1] was determined as 2.5 µM.
Still for that read-out and setting: for `CCCCCN(CC(=O)O)C(=O)[C@H](CCCNC(=N)N)NS(=O)(=O)c1ccc2cc(OC)c(OC)cc2c1` [Sample 7, N^2-(6,7-dimethoxy-2-naphthylsulfonyl)-L-arginyl-N-pentylglycine] the value was 5 µM.
On the same count and under the same terms, in the case of `CCCCCCN(CC(=O)O)C(=O)[C@H](CCCNC(=N)N)NS(=O)(=O)c1ccc2cc(OC)c(OC)cc2c1` [Sample 9, N^2-(6,7-dimethoxy-2-naphthylsulfonyl)-L-arginyl-N-hexylglycine] it was 1.5 µM; in that of `CCCCN(CC(=O)O)C(=O)[C@H](CCCNC(=N)N)NS(=O)(=O)c1cc(OC)c2cc(OC)ccc2c1` [Sample 25, N^2-(4,6-dimethoxy-2-naphthylsulfonyl)-L-arginyl-N-butylglycine], 2 µM; in that of `COCCN(CCCC(=O)O)C(=O)[C@H](CCCNC(=N)N)NS(=O)(=O)c1ccc2cc(OC)c(OC)cc2c1` [Sample 17, N^2-(6,7-dimethoxy-2-naphthylsulfonyl)-N-(2-methoxyethyl)-N-(3-carboxypropyl)-L-argininamide], 2.5 µM.
With `CCOCCN(CCC(=O)O)C(=O)[C@H](CCCNC(=N)N)NS(=O)(=O)c1ccc2cc(OC)c(OC)cc2c1` [Sample 21, N^2-(6,7-dimethoxy-2-naphthylsulfonyl)-L-arginyl-N-(2-ethoxyethyl)-β-alanine], the “acute toxicity value (LD50)” value in data set [2] is 660-1,000 milligrams per kilogram. Moreover, in data set [1], the “Concentration Required” value worked out at 4 µM.
Consider `CCCN(CC(=O)O)C(=O)[C@H](CCCNC(=N)N)NS(=O)(=O)c1ccc2cc(OC)c(OC)cc2c1` [Sample 1, N^2-(6,7-dimethoxy-2-naphthylsulfonyl)-L-arginyl-N-propylglycine], for which, in data set [1], the “Concentration Required” value came out at 8 µM.
The same measure, in the same setting: for `COCCN(CC(=O)Oc1cccc(C)c1)C(=O)[C@H](CCCNC(=N)N)NS(=O)(=O)c1ccc2cc(OC)c(OC)cc2c1` [Sample 52, N^2-(6,7-dimethoxy-2-naphthylsulfonyl)-L-arginyl-N-(2-methoxyethyl) glycine m-tolyl ester] the value was 20 µM; for `COCCN(CC(=O)Oc1ccc2c(c1)CCC2)C(=O)[C@H](CCCNC(=N)N)NS(=O)(=O)c1ccc2cc(OC)c(OC)cc2c1` [Sample 53, N^2-(6,7-dimethoxy-2-naphthylsulfonyl)-L-arginyl-N-(2-methoxyethyl) glycine 5-indanyl ester], 30 µM; for `CCCCN(CC(=O)O)C(=O)[C@H](CCCNC(=N)N)NS(=O)(=O)c1ccc2cc(OC)c(OC)cc2c1` [Sample 3, N^2-(6,7-dimethoxy-2-naphthylsulfonyl)-L-arginyl-N-butylglycine], 0.3 µM.
Turning to `COc1ccc2ccc(S(=O)(=O)N[C@@H](CCCNC(=N)N)C(=O)N(CC[S+](C)[O-])CC(=O)O)cc2c1` (stereo partly drawn) [Sample 57, N^2-(7-methoxy-2-naphthylsulfonyl)-L-arginyl-N-(2-methylsulfinylethyl)glycine], in data set [1], the “Concentration Required” value was 6.5 µM.
